For one test, the system named is anesthetized rats. In words: Erectile responses: intracavernosal pressure (ICP) increases to cavernosal nerve electrical stimulation. The format is in vivo, rat (Sprague-Dawley). Particulars: 3 mg/kg i.v. How it is done:
The effects of nebivolol administration on rat erectile function were studied. Erectile responses in rats were evaluated by measuring intracavernosal pressure (ICP) increases to cavernosal nerve electrical stimulation. To measure ICP, rats (Sprague-Dawley) were anesthetized with ketolar and diazepam. The surgical procedure included dissection and isolation of the right cavernous nerve through an abdominal midline incision and exposure of penile crura through a transverse perineal incision. ICP measurements were permitted by insertion of a 23-gauge needle into the right crus. The right carotid artery and left external jugular vein were catheterized for constant blood pressure measurement and saline infusion, respectively. Electrostimulation was performed with a delicate platinum bipolar hook electrode connected to a stimulator and current amplifier. Parameters of electrical stimulation included pulses with a duration of 0.3 ms and 1.5 mA of current intensity for 1 min. Frequency-response curves were performed by applying stimulation at 1, 3 and 10 Hz with a lapse of 3 min between each increase of frequency.

Test [1] relates to spontaneous hypertensive rats. Conditions: acute; cited from earlier work.
The subject of another test is anaesthetized dogs. Conditions: cited from earlier work.

The values that follow come from patent US20090181975A1, “NEBIVOLOL IN THE TREATMENT OF SEXUAL DYSFUNCTION” (FOREST LABORATORIES HOLDINGS LIMITED, priority 2008, published 2009).

Consider `OC(CNCC(O)C1CCc2cc(F)ccc2O1)C1CCc2cc(F)ccc2O1` (racemic) [nebivolol, α,α′-iminobis(methylene)bis[6-fluoro-2-chromanmethanol]], for which the “effect on erectile responses to CNES” value in the test on anesthetized rats was “significantly potentiated”. Besides, the “AUC of ICP at 3 Hz” value in the test on anesthetized rats (control 1612±294, p<0.05) is 2544±440 mmHg×s. Moreover, the “effect on blood pressure” value in test [1] is reported as “acutely lowers blood pressure”. For the same compound, in the test on anaesthetized dogs, the “effect on stroke volume” value is given as “augments stroke volume” and the “effect on total peripheral vascular resistance” value is “decreases total peripheral vascular resistance”.
